The results in this text go back to PubChem BioAssay AID812 (SRMLSC, 2007).

The source made the active and inactive calls. The rule behind the calls is not given here.

For orientation: EC50 means the midpoint of the concentration-response curve.

For this assay, the system named is Saccharomyces cerevisiae lifespan extension, no nicotinamide. Briefly: yeast lifespan extension without nicotinamide, confirmation, yeast lifespan extension project, S. cerevisiae (AID 812).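 Note: growth read as optical density after 42 hours of incubation at 30C.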
On to `O=c1cc(O)c2c(=O)n(-c3ccccc3)c3c(c2o1)CCCCC3`, for which the EC50 was > 40 µM (inactive). The result for `Cc1cc(C=C2C(=O)N(C)C(=S)N(C)C2=O)c(C)n1-c1cccnc1` reads > 40 µM (inactive); that for `CCCC(=Nc1ccc(N)cc1)C1=C(O)C(C(=O)OC)C(C)(C)CC1=O` (centres undefined), > 40 µM (inactive). As to `CCOc1cc(Br)c(Br)c(C=Nc2ccc(NC(C)=O)cc2)c1O`, the EC50 was > 40 µM (inactive). For the compound `Oc1ccc2ccccc2c1/C=N/c1nccs1`, the EC50 was > 40 µM (inactive). With `O=C1c2ccccc2NC(c2ccc(Cl)cc2Cl)N1O` (centres undefined), the EC50 was > 40 µM (inactive). For `CC1=CN2C(=N)/C(=C/c3ccc([N+](=O)[O-])o3)C(=O)N=C2S1`, the EC50 was > 40 µM (inactive). The result for `CC(=O)Nc1nc(C)c(Oc2ccccc2)c(=O)[nH]1` reads > 40 µM (inactive); that for `Cc1nc2ccccc2n1-c1ccccc1`, > 40 µM (inactive). The figure for `COc1cccc(/C=C2\C(=O)N(c3cccc(C)c3)C(=O)c3ccccc32)c1` is > 40 µM (inactive); for `CCCCSc1[nH]c(=O)c(C(=O)OCC)cc1C#N` it is > 40 µM (inactive). For `O=C(Oc1ccc([N+](=O)[O-])cc1)c1ccc2ccccc2n1`, the EC50 was > 40 µM (inactive). The result for `CC(=NCCc1c(C)[nH]c2ccc(C)cc12)C1=C(O)CC(c2ccccc2)CC1=O` (centres undefined) reads > 40 µM (inactive); that for `COc1ccc(/C=C/C(=O)C2C(=O)C=C(C)OC2=O)cc1O` (centres undefined), > 40 µM (inactive). The figure for `CCCCCSc1nc2c(c(=O)[nH]c(=O)n2C)n1C` is > 40 µM (inactive); for `CCc1nnc(N2C(=O)c3ccc(Oc4ccc([N+](=O)[O-])cc4)cc3C2=O)s1` it is > 40 µM (inactive). In the case of `CCCC(=Nc1ccccc1OC)C1=C(O)CC(c2ccccc2)CC1=O` (centres undefined), the EC50 was > 40 µM (inactive). Take `CCN1C(=O)C(=Cc2ccc(C)s2)C(=O)N(CC)C1=S`: the EC50 is > 40 µM (inactive). The result for `CCOC(=O)CN1C(=O)N[C@H](c2ccc(Br)cc2)C(C(C)=O)=C1C` reads > 40 µM (inactive); that for `CCOC(=O)/C(=C\c1cn(C)c2ccccc12)[N+](=O)[O-]`, > 40 µM (inactive). Turning to `COc1ccc2c(=O)c3c(=O)n(Cc4ccco4)c(-c4ccco4)nc3oc2c1`, the EC50 is > 40 µM (inactive). For the compound `CC1CCc2cc(F)cc3c(O)c(C(=O)NCc4ccco4)c(=O)n1c23` (centres undefined), the EC50 was > 40 µM (inactive). For the compound `Cc1ccc(Oc2nc3ccccc3n3c(C)nnc23)c(C)c1`, the EC50 is > 40 µM (inactive). As for `CCCCCOC(=O)CSc1nc2c(c(=O)[nH]c(=O)n2C)n1CCc1ccccc1`, the EC50 was > 40 µM (inactive). `N=c1c2c(-c3ccccc3)c(-c3ccccc3)n(Cc3ccco3)c2ncn1CCCn1ccnc1`: the EC50 was > 40 µM (inactive). As to `O=C(NC(=S)NNC(=O)c1ccccc1O)c1ccco1`, the EC50 is > 40 µM (inactive).

Consider `C/C(=N\NC(=O)c1cccc(Cl)c1)C1C(=O)c2ccccc2C1=O`, for which the EC50 was > 40 µM (inactive).

`NC(=S)N/N=C/c1coc2cc(Cl)ccc2c1=O`: the EC50 was > 40 µM (inactive). The figure for `O=C(CCl)c1ccc(Cc2ncc(C(F)(F)F)cc2Cl)s1` is > 40 µM (inactive); for `Oc1ccc(NCc2ccccc2OCc2ccccc2F)cc1` it is > 40 µM (inactive); for `COC(=O)c1cc(=O)n(-c2ccccc2)c(=Nc2ccccc2)s1` it is > 40 µM (inactive). The result for `C=CCN(CC=C)S(=O)(=O)c1ccc2nc(NC(=O)C(C)C)sc2c1` reads > 40 µM (inactive); that for `CCc1c(C)c(C#N)c2nc3ccccc3n2c1Cl`, > 40 µM (inactive). Regarding `O=C1C=CC2C(c3ccc4c(c3)OCO4)CC1N2Cc1ccccc1` (centres undefined), the EC50 is > 40 µM (inactive). The result for `CCSc1ccccc1C(=O)n1nnc2ccccc21` reads > 40 µM (inactive); that for `O=C(COc1ccc2ccccc2c1)Nc1cccc(C(=O)Nc2ccccc2C(=O)O)c1`, > 40 µM (inactive); that for `CNC(=S)NC1CC2CCCC(C1)N2Cc1ccco1` (centres undefined), > 40 µM (inactive). In the case of `COc1cc(C(C[N+](=O)[O-])c2c(-c3ccccc3)cc3ccccn23)cc(OC)c1OC` (centres undefined), the EC50 is > 40 µM (inactive). The figure for `COCCCNc1c2c3c(cccc3[nH]c1=O)C(=O)c1ccccc1-2` is > 40 µM (inactive); for `c1ccc(-c2cc(N3CCOCC3)nc3ccccc23)cc1` it is > 40 µM (inactive); for `COc1cccc(CSc2nc3ccccc3cc2C=O)c1` it is > 40 µM (inactive).

For `O=C(Oc1ccc2c(c1)OCO2)C12CC3CC(CC(C3)C1)C2`, the EC50 was > 40 µM (inactive).

As to `COc1ccc(NC(=O)/C(Cl)=C(/Cl)S(=O)Cc2ccc(C)cc2)cn1` (centres undefined), the EC50 is > 40 µM (inactive). The result for `CCOc1ccc(/C=C2/C(=O)NC(=O)N(CCc3ccc(F)cc3)C2=O)cc1` reads > 40 µM (inactive); that for `O=C1CC(c2ccccc2)CC(O)=C1C=NCCN1CCNCC1` (centres undefined), > 40 µM (inactive); that for `C=C(C)CN(CC)C(=O)COc1ccc(S(=O)(=O)Nc2ccc(OC)cc2)cc1`, > 40 µM (inactive). Consider `Cc1ccnc(SCc2cc(=O)c(OC(=O)c3ccco3)co2)n1`, for which the EC50 was > 40 µM (inactive). The result for `Nc1cccc2c1C(=O)N(C(=O)c1ccc(Cl)c(S(=O)(=O)N3CCCCCC3)c1)C2=O` reads > 40 µM (inactive); that for `CCN(CCO)C(=O)C12CCC(C)(C(=O)C1)C2(C)C` (centres undefined), > 40 µM (inactive); that for `COCCCNC(CC(=O)Nc1ccc(OC)cc1OC)C(=O)O` (centres undefined), > 40 µM (inactive). The result for `Cc1ccc2nc(N3C(=O)C(O)=C(C(=O)c4ccco4)C3c3cccs3)sc2c1` (centres undefined) reads > 40 µM (inactive). On to `CCOC(=O)C1CCN(C(c2cc3ccc(C)c(C)c3[nH]c2=O)c2nnnn2C2CCCCC2)CC1` (centres undefined), for which the EC50 was > 40 µM (inactive). As for `CCn1c(=O)c2c(O)cc(=O)oc2c2ccccc21`, the EC50 is > 40 µM (inactive). Turning to `CC1=C(C#N)C2C(/C1=N/O)C2(C)C` (centres undefined), the EC50 is > 40 µM (inactive). As to `CCOC(=O)c1c(NC(=O)C2C3C=CC(C3)C2C(=O)O)sc2c1CCC(CC)C2` (centres undefined), the EC50 was > 40 µM (inactive). The figure for `COc1ccc(/C=C(/C(=O)c2ccc(Cl)cc2Cl)n2cncn2)cc1` is > 40 µM (inactive); for `CCCCCC1CC1C(=O)N/N=C/c1ccc(N(C)C)cc1` (centres undefined) it is > 40 µM (inactive). The result for `Cc1ccnc(-n2c(C)cc(/C=C3\C(=O)NC(=S)N(C)C3=O)c2C)c1` reads > 40 µM (inactive); that for `CC(=O)Oc1ccc(N(C(C)=O)S(=O)(=O)c2ccc(C)c([N+](=O)[O-])c2)cc1`, > 40 µM (inactive). Take `CC(C)(C)C(=O)Cn1c(=N)n(Cc2ccccc2)c2ccccc21`: the EC50 was > 40 µM (inactive). On to `CC1CC(C)CN(S(=O)(=O)c2cccc(C(=O)N3C(=O)c4cccc(N)c4C3=O)c2)C1` (centres undefined), for which the EC50 was > 40 µM (inactive). The result for `CCC1CCCCN1S(=O)(=O)c1ccc(S(=O)(=O)N(Cc2cccs2)C2CC2)cc1` (centres undefined) reads > 40 µM (inactive); that for `CN1C(=O)NC(c2ccc(O)cc2)C(C(=O)c2cccs2)C1(O)C(F)(F)F` (centres undefined), > 40 µM (inactive). The result for `O=C(COc1ccc([N+](=O)[O-])cc1)N(Cc1ccccc1)Cc1ccccc1` reads > 40 µM (inactive). The result for `COC(=O)/C(=C/c1cn(C)c2ccccc12)[N+](=O)[O-]` reads > 40 µM (inactive). Take `O=C(Nc1scc(-c2cccs2)c1C(=O)O)c1cccs1`: the EC50 was > 40 µM (inactive).

Turning to `COCCCN(C(=S)Nc1cc(Cl)cc(Cl)c1)C(C)c1ccncc1` (centres undefined), the EC50 is > 40 µM (inactive). The figure for `CCCCn1c(=O)c(C(=O)Nc2cnccn2)c(O)c2ccccc21` is > 40 µM (inactive); for `Cc1cc(C)nc(SCc2cc(=O)c(OC(=O)c3ccco3)co2)n1` it is > 40 µM (inactive). The figure for `Cc1nn(-c2c(Cl)cc(Cl)cc2Cl)c(=O)c2ccccc12` is > 40 µM (inactive); for `COc1ccc(-c2noc(CSc3nnc(-c4ccncc4)n3-c3ccc(F)cc3)n2)cc1OC` it is > 40 µM (inactive). The result for `CCn1cc(C(=O)O)c(=O)c2ccc(C)nc21` reads > 40 µM (inactive); that for `O=C(NCc1ccc(Cl)cc1)c1ccccc1CCc1ccccc1`, > 40 µM (inactive); that for `C=C(CC)C(=O)c1ccc(OCC(=O)O)c(Cl)c1Cl`, > 40 µM (inactive).

Take `CN(C)CC(C(=O)c1ccccc1)c1ccccc1` (centres undefined): the EC50 was > 40 µM (inactive). The result for `CCc1ccc(C(=O)CN2C(=O)NC(C)(CCc3ccccc3)C2=O)cc1` (centres undefined) reads > 40 µM (inactive); that for `CC1(C)Oc2ccccc2OC1(O)c1ccc2ccccc2n1` (centres undefined), > 40 µM (inactive); that for `CN(Cc1c(O)ccc2c1oc(=O)c1ccccc12)C1CCCCC1`, > 40 µM (inactive).

In the case of `Cc1n[nH]c(=O)n1-c1cccc(C(F)(F)F)c1`, the EC50 is > 40 µM (inactive). In the case of `Cc1nonc1NC(=O)CSc1nc(C2CCCCC2)nc2ccccc12`, the EC50 was > 40 µM (inactive). `CCCC(=O)C1C(=O)CC(CC(C)SCC)CC1=O` (centres undefined): the EC50 is > 40 µM (inactive).

With `N#Cc1cc(C(=O)c2cc(F)ccc2O)cn(-c2nccs2)c1=O`, the EC50 is > 40 µM (inactive).

Consider `CCCCCn1c(=O)c(C(=O)NCc2ccccn2)c(O)c2ccccc21`, for which the EC50 is > 40 µM (inactive).

Turning to `CCCC(=Nc1ccccc1)C1=C(O)C(C(=O)OC)C(C)(C)CC1=O` (centres undefined), the EC50 is > 40 µM (inactive). On to `Cc1ccnc(N=Cc2c(O)ccc3oc4c(c23)CCCC4)c1`, for which the EC50 was > 40 µM (inactive). For the compound `CC1CCCN(c2nc3ccccc3nc2C(C#N)C(=O)OC2CCCCC2)C1` (centres undefined), the EC50 is > 40 µM (inactive). `CC1=CS(=O)(=O)CC1Sc1nc2ccccc2[nH]1` (centres undefined): the EC50 was > 40 µM (inactive). The figure for `CCn1c(/N=C/c2ccccc2NS(=O)(=O)c2ccc(C)cc2)nc2ccccc21` is > 40 µM (inactive); for `O=C1/C(=N/n2cnnc2)c2ccccc2N1Cc1ccccc1` it is > 40 µM (inactive).
